Several values for one entry are separate records, joined by “and”; a condition that tells them apart may be missing. Identical values can stand only once. Toxic doses and inconclusive results are not listed.
Test system: P388 leukemia ip, CD2F1 mice, survival T/C
Assay: NCI In Vivo Anticancer Drug Screen. Data for tumor model P388 Leukemia (intraperitoneal) in CD2F1 (CDF1) mice
Settings: endpoint: median survival time, higher = longer survival
Method in brief: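 Mice carrying the transplanted tumor received test compound or vehicle. Survival was recorded in each group, and the value is the treated-group measurement divided by that of the vehicle-treated control group.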

[1] = dose: 60.0 mg/kg/injection, schedule: Q01DX005 (ip), vehicle: saline with Tween-80
[2] = dose: 120.0 mg/kg/injection, schedule: Q01DX005 (ip), vehicle: saline with Tween-80
[3] = dose: 240.0 mg/kg/injection, schedule: Q01DX005 (ip), vehicle: saline with Tween-80
[4] = dose: 50.0 mg/kg/injection, schedule: Q01DX009 (ip), vehicle: saline with Tween-80
[5] = dose: 100.0 mg/kg/injection, schedule: Q01DX009 (ip), vehicle: saline with Tween-80
[6] = dose: 200.0 mg/kg/injection, schedule: Q01DX009 (ip), vehicle: saline with Tween-80
[7] = dose: 50.0 mg/kg/injection, schedule: Q01DX005 (ip), vehicle: Klucel (hydroxypropylcellulose) (HPC)
[8] = dose: 100.0 mg/kg/injection, schedule: Q01DX005 (ip), vehicle: Klucel (hydroxypropylcellulose) (HPC)
[9] = dose: 60.0 mg/kg/injection, schedule: Q01DX005 (ip), vehicle: saline

How did the T/C [1] turn out when `O=C(/C=C/c1ccccc1)/C=C/c1ccccc1` (tested in a mixture with another compound) was run?
The T/C was 98 % of control.

What about the T/C [2] of the same compound?
The T/C was 91 % of control.

And the T/C [3]?
The T/C was 91 % of control.

`Clc1cc(-c2ccccc2)no1` was tested. Which T/C (dose: 25.0 mg/kg/injection, schedule: Q04DX003 (ip), vehicle: Klucel (hydroxypropylcellulose) (HPC)) did it give?
The T/C was 109 % of control.

What about the T/C (dose: 50.0 mg/kg/injection, schedule: Q04DX003 (ip), vehicle: Klucel (hydroxypropylcellulose) (HPC)) of the same compound?
The T/C was 108 % of control.

And the T/C (dose: 100.0 mg/kg/injection, schedule: Q04DX003 (ip), vehicle: Klucel (hydroxypropylcellulose) (HPC))?
The T/C was 99 % of control and 112 % of control.

`CCCC(CC)(C(=O)Nc1ccc2nc(C)cc(N)c2c1)C(=O)Nc1ccc2nc(C)cc(N)c2c1` was tested. Which T/C (dose: 50.0 mg/kg/injection, schedule: Q01DX005 (ip), vehicle: saline with Tween-80) did it give?
Its T/C is 91 % of control.

And the T/C (dose: 100.0 mg/kg/injection, schedule: Q01DX005 (ip), vehicle: saline with Tween-80)?
The T/C was 93 % of control.

What does the source list for `S=C1N=C2c3ccccc3C2C(=S)S1` (stereo not drawn)?
T/C (dose: 25.0 mg/kg/injection, schedule: Q01DX009 (ip), vehicle: saline with Tween-80): 93 % of control; T/C [4]: 101 % of control and 105 % of control; T/C [5]: 102 % of control and 120 % of control and 91 % of control; T/C [6]: 100 % of control and 104 % of control and 87 % of control

How did the T/C (dose: 12.5 mg/kg/injection, schedule: Q01DX005 (ip), vehicle: saline) turn out when `O=S1(=O)CS(=O)(=O)OCCCCO1` was run?
The T/C was 176 % of control.

And the T/C (dose: 25.0 mg/kg/injection, schedule: Q01DX005 (ip), vehicle: saline)?
Its T/C is 167 % of control and 199 % of control.

What about the T/C (dose: 50.0 mg/kg/injection, schedule: Q01DX005 (ip), vehicle: saline) of the same compound?
Its T/C is 87 % of control.

How did the T/C (dose: 100.0 mg/kg/injection, schedule: Q01DX001 (ip), vehicle: Klucel (hydroxypropylcellulose) (HPC)) turn out when `COc1cc(CO)c(I)c(OC)c1OC` was run?
The T/C was 99 % of control.

And the T/C (dose: 200.0 mg/kg/injection, schedule: Q01DX001 (ip), vehicle: Klucel (hydroxypropylcellulose) (HPC))?
Its T/C is 97 % of control.

For `CCCC(=O)Nc1ccn(C2OC(CO)C(O)C2O)c(=O)n1` (stereo not drawn), which T/C (dose: 25.0 mg/kg/injection, schedule: Q01DX009 (ip), vehicle: saline) is on record?
The T/C was 99 % of control.

And the T/C (dose: 50.0 mg/kg/injection, schedule: Q01DX009 (ip), vehicle: saline)?
The T/C was 96 % of control.

What about the T/C (dose: 100.0 mg/kg/injection, schedule: Q01DX009 (ip), vehicle: saline) of the same compound?
Its T/C is 94 % of control.

What about the T/C (dose: 200.0 mg/kg/injection, schedule: Q01DX009 (ip), vehicle: saline) of the same compound?
Its T/C is 96 % of control.

Which T/C [7] does the source give for `COC(=O)C1(C)C(=O)NC(=O)CC1C` (stereo not drawn) here?
Its T/C is 105 % of control.

What about the T/C [8] of the same compound?
The T/C was 101 % of control.

And the T/C (dose: 200.0 mg/kg/injection, schedule: Q01DX005 (ip), vehicle: Klucel (hydroxypropylcellulose) (HPC))?
Its T/C is 87 % of control.

Which results are given for `CC(C)(C)N1C(=O)C(c2ccccc2)(c2ccccc2)C1/C=C/c1ccccc1` (stereo not drawn)?
T/C [7]: 93 % of control; T/C [8]: 90 % of control

How did the T/C [1] turn out when `O=C1CSC(c2ccc(F)cc2)N1CCN1C(=O)CSC1c1ccc(F)cc1` (stereo not drawn) was run?
Its T/C is 106 % of control.

And the T/C [2]?
The T/C was 100 % of control.

And the T/C [3]?
The T/C was 95 % of control.

`[O-][Br+2]([O-])O` was tested. Which T/C [9] did it give?
Its T/C is 99 % of control.

What about the T/C (dose: 120.0 mg/kg/injection, schedule: Q01DX005 (ip), vehicle: saline) of the same compound?
The T/C was 99 % of control.

How did the T/C (dose: 15.0 mg/kg/injection, schedule: Q01DX005 (ip), vehicle: saline) turn out when `CCN(CC)Cc1cc(Nc2cc(C)nc3ccc(N(C)C)cc23)ccc1O` was run?
The T/C was 91 % of control.

And the T/C (dose: 30.0 mg/kg/injection, schedule: Q01DX005 (ip), vehicle: saline)?
Its T/C is 100 % of control.

And the T/C [9]?
The T/C was 104 % of control and 110 % of control.

Which T/C [4] does the source give for `CCc1c2c(c(C)n1C)C(c1ccccc1)=NCC(=O)N2` here?
The T/C was 91 % of control.

What about the T/C [5] of the same compound?
Its T/C is 98 % of control.

And the T/C [6]?
Its T/C is 98 % of control.

`O=C1CC2C3Nc4ccccc4C3CCN2C2=C1CC(OC(=O)c1ccccc1)CC2` (stereo not drawn) was tested. Which T/C (dose: 100.0 mg/kg/injection, schedule: Q04DX003 (ip), vehicle: saline sonified) did it give?
Its T/C is 100 % of control.

And the T/C (dose: 200.0 mg/kg/injection, schedule: Q04DX003 (ip), vehicle: saline sonified)?
Its T/C is 100 % of control.

And the T/C (dose: 400.0 mg/kg/injection, schedule: Q04DX003 (ip), vehicle: saline sonified)?
Its T/C is 95 % of control.

How did the T/C (dose: 60.0 mg/kg/injection, schedule: Q01DX005 (ip), vehicle: Klucel (hydroxypropylcellulose) (HPC)) turn out when `CN(C)c1c2c(oc(=O)c1Cl)-c1ccccc1OCC2` was run?
Its T/C is 101 % of control.

What about the T/C (dose: 120.0 mg/kg/injection, schedule: Q01DX005 (ip), vehicle: Klucel (hydroxypropylcellulose) (HPC)) of the same compound?
The T/C was 103 % of control.

What about the T/C (dose: 240.0 mg/kg/injection, schedule: Q01DX005 (ip), vehicle: Klucel (hydroxypropylcellulose) (HPC)) of the same compound?
Its T/C is 107 % of control.

— PubChem BioAssay AID330 (DTP/NCI, 2004)
